Measurements as given in US12643905B2, “Spiropyrrolidine derived antiviral agents” (priority 2021, dated 2026).
pEC50, pIC50: −log10 of the molar value.

How the values were obtained:
SARS-CoV-2 3CL-protease = SARS-CoV-2 3CL-protease (Severe acute respiratory syndrome coronavirus 2, UniProt P0DTD1); assay: SARS-CoV-2 3C-like (3CL) protease fluorescence assay (FRET); assay type: biochemical; conditions: recombinant SARS-CoV-2 3CL-protease 10 nM, 30 min preincubation, run in duplicate; read-out: FRET IC50
[1] = test system: 229E human corona virus (hCoV); assay: 229E live virus assay (CPE, ATPlite readout in MRC-5 cells); assay type: cell-based, hCoV-229E; conditions: Human coronavirus 229E, MRC5, 144 h, MOI 0.05, 6 days at 34° C., run in duplicate

Row | Structure (SMILES) | pIC50 (SARS-CoV-2 3CL-protease) | pEC50 [1]
1 | CC(C)C[C@H]1C(=O)N2C[C@]3(C[C@H]2C#N)C(=O)Nc2ccc(cc23)/C=C\CCNC(=O)C(=O)N1C [Example 214] | 6.00 to 7.00 | 6.00 to 7.00
2 | CC(C)C[C@H]1C(=O)N2C[C@]3(C[C@H]2C#N)C(=O)Nc2ccc(cc23)CCCCN(Cc2ccccc2)C(=O)C(=O)N1C [Example 212] | 6.00 to 7.00 | 6.00 to 7.00
3 | CCCC[C@H](NC(=O)C(=O)Nc1ccc(F)cc1C(F)(F)F)C(=O)N1C[C@]2(C[C@H]1C#N)C(=O)Nc1ccccc12 [Example 75] | > 7.00 | > 7.00
4 | CC(C)(C)C[C@H](NC(=O)C(=O)c1ccccc1)C(=O)N1C[C@]2(C[C@H]1C#N)C(=O)Nc1ccccc12 [Example 179] | 6.00 to 7.00 | 6.00 to 7.00
5 | CC(C)(C)C[C@H](NC(=O)C(=O)Nc1c(F)cc(F)cc1F)C(=O)N1C[C@]2(C[C@H]1C#N)C(=O)Nc1ccccc12 [Example 92] | > 7.00 | > 7.00
6 | CC(C)(C)C[C@H](NC(=O)C(=O)c1ccccc1F)C(=O)N1C[C@]2(C[C@H]1C#N)C(=O)Nc1ccccc12 [Example 182] | 6.00 to 7.00 | 6.00 to 7.00
7 | CC(C)(C)C[C@H](NC(=O)C(=O)NC1(c2ccccc2)CCC1)C(=O)N1C[C@]2(C[C@H]1C#N)C(=O)Nc1ccccc12 [Example 119] | > 7.00 | > 7.00
8 | [2H]C([2H])([2H])N(C(=O)C(=O)Nc1c(C(F)(F)F)cccc1C(F)(F)F)[C@@H](CC1CC1)C(=O)N1C[C@]2(C[C@H]1C#N)C(=O)Nc1ccccc12 [Example 193] | > 7.00 | > 7.00
9 | C[C@@H](NC(=O)C(=O)N[C@@H](CC(C)(C)C)C(=O)N1C[C@]2(C[C@H]1C#N)C(=O)Nc1ccccc12)c1ccccc1 [Example 160] | > 7.00 | > 7.00
10 | CC(C)(C)C[C@H](NC(=O)C(=O)Nc1ccc(F)cc1)C(=O)N1C[C@]2(C[C@H]1C#N)C(=O)Nc1ccccc12 [Example 93] | > 7.00 | > 7.00
11 | CC(C)(C)C[C@H](NC(=O)C(=O)NC1CC(F)(F)C1)C(=O)N1C[C@]2(C[C@H]1C#N)C(=O)Nc1ccccc12 [Example 120] | > 7.00 | > 7.00
12 | N#C[C@@H]1C[C@@]2(CN1C(=O)[C@H](CC1CC1)NC(=O)C(=O)Nc1ccc(F)cc1C(F)(F)F)C(=O)Nc1ccccc12 [Example 77] | > 7.00 | > 7.00
13 | CC(C)C[C@H](NC(=O)C(=O)Nc1ccc(F)cc1)C(=O)N1C[C@]2(C[C@H]1C#N)C(=O)Nc1ccccc12 [Example 115] | > 7.00 | > 7.00
14 | CC(C)(C)C[C@H](NC(=O)C(=O)C1CCCCC1)C(=O)N1C[C@]2(C[C@H]1C#N)C(=O)Nc1ccccc12 [Example 183] | > 7.00 | 6.00 to 7.00
15 | CC(C)(C)C[C@H](NC(=O)C(=O)Nc1c(Cl)cccc1Cl)C(=O)N1C[C@]2(C[C@H]1C#N)C(=O)Nc1ccccc12 [Example 117] | > 7.00 | > 7.00
16 | Cc1cccc(C)c1NC(=O)C(=O)N[C@@H](CC(C)(C)C)C(=O)N1C[C@]2(C[C@H]1C#N)C(=O)Nc1ccccc12 [Example 84] | > 7.00 | > 7.00
17 | CCCC[C@H](NC(=O)C(=O)NC1(c2ccc(F)cc2F)CC1)C(=O)N1C[C@]2(C[C@H]1C#N)C(=O)Nc1ccccc12 [Example 76] | > 7.00 | > 7.00
18 | C[C@H](NC(=O)C(=O)N[C@@H](CC(C)(C)C)C(=O)N1C[C@]2(C[C@H]1C#N)C(=O)Nc1ccccc12)c1ccccc1 [Example 161] | > 7.00 | > 7.00
19 | CC(C)(C)C[C@H](NC(=O)C(=O)c1c[nH]c2ccccc12)C(=O)N1C[C@]2(C[C@H]1C#N)C(=O)Nc1ccccc12 [Example 181] | 6.00 to 7.00 | 6.00 to 7.00
20 | N#C[C@@H]1C[C@@]2(CN1C(=O)[C@H](CC1CC1)NC(=O)C(=O)NC1(c3ccc(F)cc3F)CC1)C(=O)Nc1ccccc12 [Example 74] | > 7.00 | > 7.00
21 | CC(C)(C)C[C@H](NC(=O)C(=O)NC1CCCC1)C(=O)N1C[C@]2(C[C@H]1C#N)C(=O)Nc1ccccc12 [Example 98] | > 7.00 | > 7.00
22 | [2H]C([2H])([2H])N(C(=O)C(=O)NCC1(C(F)(F)F)CC1)[C@@H](CC1CC1)C(=O)N1C[C@]2(C[C@H]1C#N)C(=O)Nc1ccccc12 [Example 192] | > 7.00 | > 7.00
23 | CC(C)(C)C[C@H](NC(=O)C(=O)Nc1ccc2cc(F)ccc2c1)C(=O)N1C[C@]2(C[C@H]1C#N)C(=O)Nc1ccccc12 [Example 85] | > 7.00 | > 7.00
24 | [2H]C([2H])([2H])N(C(=O)C(=O)NC1(c2ccc(F)cc2F)CC1)[C@@H](CC1CC1)C(=O)N1C[C@]2(C[C@H]1C#N)C(=O)Nc1ccccc12 [Example 191] | > 7.00 | > 7.00
25 | CC(C)C[C@H]1C(=O)N2C[C@]3(C[C@H]2C#N)C(=O)Nc2ccc(cc23)CCCCCNC(=O)C(=O)N1C [Example 213] | 6.00 to 7.00 | 6.00 to 7.00
